In patent US11046716B2, “Beta-lactamase inhibitors” (priority 2015, dated 2021):
Like-named read-outs stand apart in the source and are kept apart here.

What was measured:
[1] = test system: P. aeruginosa expressing the Class B carbapenemase VIM-2; experiment: Broth microdilution MIC assay with meropenem, P. aeruginosa VIM-2; assay type: cell-based; settings: Fixed Mero (meropenem) 4 μg/mL; P. aerug. 2775 VIM-2
Procedure, shortened: (§1)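 Visual MIC readout of the test compound after 16-20 hours at 37° C, measured in the presence of a constant 4 μg/ml β-lactam. Compound concentrations spanned 16 to 0.125 μg/mL in 2-fold steps in cation-adjusted Mueller Hinton broth.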

[2] = test system: E. cloacae expressing the Class C P99; experiment: Broth microdilution MIC assay with ceftazidime, E. cloacae P99; assay type: cell-based; settings: Fixed CAZ (ceftazidime) 4 μg/mL; E. cl. 144200 p99 AmpC
Procedure, shortened: as §1

KPC-2 = biological target: T1, KPC-2 (Klebsiella pneumoniae, UniProt Q9F663); experiment: β-lactamase enzyme inhibition assay, KPC-2 (imipenem substrate); assay type: biochemical
T1 construct: made in house; host or cells: E. coli BL21(DE3)
T1 sequence (Q9F663 25-293, looked up): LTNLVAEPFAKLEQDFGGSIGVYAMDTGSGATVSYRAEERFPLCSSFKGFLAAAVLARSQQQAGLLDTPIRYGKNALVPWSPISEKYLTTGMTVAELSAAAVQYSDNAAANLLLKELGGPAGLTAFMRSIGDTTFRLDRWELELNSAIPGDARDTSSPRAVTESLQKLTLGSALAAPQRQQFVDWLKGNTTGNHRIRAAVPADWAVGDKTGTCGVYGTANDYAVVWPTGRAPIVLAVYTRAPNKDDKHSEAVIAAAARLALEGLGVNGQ
Procedure, shortened: (§2)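 Read-out is the rate of β-lactam ring hydrolysis monitored by absorbance: 300 nm for imipenem with KPC-2 and 260 nm for cefotaxime with SHV-5. Recombinant native enzymes were first incubated with compound at 37 °C for 15 min. The IC50 is the inhibitor concentration that halves the initial hydrolysis rate.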

[3] = test system: K. pneumoniae producing the Class D carbapenemase OXA-48; experiment: Broth microdilution MIC assay with meropenem, K. pneumoniae OXA-48; assay type: cell-based; settings: Fixed Mero (meropenem) 4 μg/mL; K. p. 11978 OXA-48
Procedure, shortened: as §1

OXA-48 = OXA-48 (UniProt Q6XEC0); experiment: β-lactamase enzyme inhibition assay, Class D oxacillinase; assay type: biochemical; settings: read-out: OXA-48
[4] = test system: E. coli expressing the Class A Extended Spectrum Beta-Lactamase (ESBL) CTX-M-15; experiment: Broth microdilution MIC assay with ceftazidime, E. coli CTX-M-15; assay type: cell-based; settings: Fixed CAZ (ceftazidime) 4 μg/mL; E. coli ESBL4 CTX-M-15
Procedure, shortened: as §1

[5] = test system: K. pneumoniae expressing the class A carbapenemase KPC-2 and the class B carbapenemase VIM-4; experiment: Broth microdilution MIC assay with meropenem, K. pneumoniae KPC-2 and VIM-4; assay type: cell-based; settings: Fixed Mero (meropenem) 4 μg/mL; K. p. A-1797 KPC-2 VIM-4
Procedure, shortened: as §1

VIM-2 = biological target: T2, VIM-2 (Escherichia coli, UniProt Q5U7L7); experiment: β-lactamase enzyme inhibition assay, VIM-2 (nitrocefin substrate); assay type: biochemical
T2 construct: made in house; host or cells: E. coli BL21(DE3)
Procedure, shortened: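 Nitrocefin hydrolysis, read at 486 nm over 10 min, served as the measure of VIM-2 activity. The enzyme had been incubated with compound for 15 min at 37 °C before 100 μM substrate was added, and IC50 values were fitted from percent inhibition of the initial rate.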

SHV-5 = biological target: T3, SHV-5 (Klebsiella pneumoniae, UniProt P0A3M1); experiment: β-lactamase enzyme inhibition assay, SHV-5 (cefotaxime substrate); assay type: biochemical
T3 construct: made in house; host or cells: E. coli BL21(DE3)
T3 sequence (P0A3M1 22-286): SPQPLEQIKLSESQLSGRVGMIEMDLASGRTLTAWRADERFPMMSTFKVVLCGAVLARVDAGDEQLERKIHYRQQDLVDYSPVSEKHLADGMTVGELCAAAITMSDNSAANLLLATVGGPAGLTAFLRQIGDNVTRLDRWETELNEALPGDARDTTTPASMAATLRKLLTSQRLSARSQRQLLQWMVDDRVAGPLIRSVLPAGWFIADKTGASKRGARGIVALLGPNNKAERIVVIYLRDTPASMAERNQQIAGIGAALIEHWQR
Procedure, shortened: as §2

[6] = test system: K. pneumoniae expressing the Class A carbapenemase KPC-2; experiment: Broth microdilution MIC assay with meropenem, K. pneumoniae KPC-2; assay type: cell-based; settings: Fixed Mero (meropenem) 4 μg/mL; K. p. 156319 KPC-3
Procedure, shortened: as §1

AmpC = biological target: T4, AmpC (Enterobacter cloacae, UniProt P05364); experiment: β-lactamase enzyme inhibition assay, p99 AmpC (nitrocefin substrate); assay type: biochemical
T4 construct: made in house; host or cells: E. coli BL21(DE3)
T4 sequence (P05364 21-381): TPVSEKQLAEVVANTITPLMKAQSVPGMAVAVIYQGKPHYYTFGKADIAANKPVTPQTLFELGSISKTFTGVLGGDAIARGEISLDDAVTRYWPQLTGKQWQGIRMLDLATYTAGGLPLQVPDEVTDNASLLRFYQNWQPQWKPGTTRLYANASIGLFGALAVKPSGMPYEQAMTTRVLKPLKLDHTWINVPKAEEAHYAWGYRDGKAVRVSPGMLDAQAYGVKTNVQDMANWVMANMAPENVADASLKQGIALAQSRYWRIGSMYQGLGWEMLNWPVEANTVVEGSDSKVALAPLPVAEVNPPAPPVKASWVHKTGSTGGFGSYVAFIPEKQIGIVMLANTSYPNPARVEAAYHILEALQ
Procedure, shortened: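 Read-out is the rate of β-lactam ring hydrolysis monitored by absorbance. Recombinant native enzymes were first incubated with compound at 37 °C for 15 min. The IC50 is the inhibitor concentration that halves the initial hydrolysis rate.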

[7] = Class A, imipenem substrate, 300 nm, read-out: KPC-2
[8] = Class B, nitrocefin substrate, 486 nm, read-out: VIM-2

SMILES | MIC (μg/mL) of Exemplary Compounds in presence of fixed β-lactams: P. aerug. 2775 VIM-2 [1] | MIC (μg/mL) of Exemplary Compounds in presence of fixed β-lactams: E. cl. 144200 p99 AmpC [2] | IC50 (KPC-2; [7]) [nM] | MIC (μg/mL) of Exemplary Compounds in presence of fixed β-lactams: K. p. 11978 OXA-48 [3] | IC50 (OXA-48) [nM] | MIC (μg/mL) of Exemplary Compounds in presence of fixed β-lactams: E. coli ESBL4 CTX-M-15 [4] | MIC (μg/mL) of Exemplary Compounds in presence of fixed β-lactams: K. p. A-1797 KPC-2 VIM-4 [5] | IC50 (VIM-2; [8]) [nM] | IC50 (SHV-5) [nM] | MIC (μg/mL) of Exemplary Compounds in presence of fixed β-lactams: K. p. 156319 KPC-3 [6] | IC50 (AmpC) [nM] | IC50 (KPC-2) [nM] | IC50 (VIM-2) [nM]
NCCn1cnnc1CC(=O)N[C@H]1Cc2cccc(C(=O)O)c2OB1O [Example 117, (R)-3-(2-(4-(2-aminoethyl)-4H-1,2,4-triazol-3-yl)acetamido)-2-hydroxy-3,4-dihydro-2H-benzo[e][1,2]oxaborinine-8-carboxylic acid] | C (C represents an MIC of <1 μg/mL) | C (C represents an MIC of <1 μg/mL) | 100 to 1000 | B (B represents an MIC between 1 and 16 μg/mL inclusive) | 100 to 1000 | C (C represents an MIC of <1 μg/mL) | B (B represents an MIC between 1 and 16 μg/mL inclusive) | 100 to 1000 | < 100 | C (C represents an MIC of <1 μg/mL) | < 100 | – | –
NCCn1cnc(CC(=O)N[C@H]2Cc3cccc(C(=O)O)c3OB2O)n1 [Example 118, (R)-3-(2-(1-(2-aminoethyl)-1H-1,2,4-triazol-3-yl)acetamido)-2-hydroxy-3,4-dihydro-2H-benzo[e][1,2]oxaborinine-8-carboxylic acid] | C (C represents an MIC of <1 μg/mL) | C (C represents an MIC of <1 μg/mL) | 100 to 1000 | B (B represents an MIC between 1 and 16 μg/mL inclusive) | 100 to 1000 | C (C represents an MIC of <1 μg/mL) | B (B represents an MIC between 1 and 16 μg/mL inclusive) | 1000 to 10000 | 100 to 1000 | C (C represents an MIC of <1 μg/mL) | < 100 | – | –
NCCn1ncnc1CC(=O)N[C@H]1Cc2cccc(C(=O)O)c2OB1O [Example 119, (R)-3-(2-(1-(2-aminoethyl)-1H-1,2,4-triazol-5-yl)acetamido)-2-hydroxy-3,4-dihydro-2H-benzo[e][1,2]oxaborinine-8-carboxylic acid] | C (C represents an MIC of <1 μg/mL) | C (C represents an MIC of <1 μg/mL) | 100 to 1000 | B (B represents an MIC between 1 and 16 μg/mL inclusive) | 100 to 1000 | C (C represents an MIC of <1 μg/mL) | B (B represents an MIC between 1 and 16 μg/mL inclusive) | 100 to 1000 | < 100 | C (C represents an MIC of <1 μg/mL) | < 100 | – | –
NCCc1cnnn1CC(=O)N[C@H]1Cc2cccc(C(=O)O)c2OB1O [Example 121, (R)-3-(2-(5-(2-aminoethyl)-1H-1,2,3-triazol-1-yl)acetamido)-2-hydroxy-3,4-dihydro-2H-benzo[e][1,2]oxaborinine-8-carboxylic acid] | C (C represents an MIC of <1 μg/mL) | C (C represents an MIC of <1 μg/mL) | – | B (B represents an MIC between 1 and 16 μg/mL inclusive) | < 100 | C (C represents an MIC of <1 μg/mL) | B (B represents an MIC between 1 and 16 μg/mL inclusive) | – | < 100 | C (C represents an MIC of <1 μg/mL) | < 100 | < 100 | 100 to 1000
